Earlier results as cited in patent publication US20050165089A1, “Compounds, compositions and methods” (priority 2003, published 2005).

Tested on: A549 cells

Row | GI50 [µM] | SMILES
1 | 1 | O=c1[nH]cc(F)c(=O)[nH]1 [5-fluorouracil]
2 | 0.004 | CC(=O)O[C@H]1C(=O)[C@@]2(C)[C@H]([C@H](OC(=O)c3ccccc3)[C@]3(O)C[C@H](OC(=O)[C@H](O)[C@@H](NC(=O)c4ccccc4)c4ccccc4)C(C)=C1C3(C)C)[C@]1(OC(C)=O)CO[C@@H]1C[C@@H]2O [paclitaxel]
3 | 0.063 | COc1cccc2c1C(=O)c1c(O)c3c(c(O)c1C2=O)C[C@@](O)(C(=O)CO)C[C@@H]3O[C@H]1C[C@H](N)[C@H](O)[C@H](C)O1 [doxorubicin]
4 | 500 | NC(=O)NO [hydroxyurea]
